Test systems include UACC-257 melanoma; OVCAR-5 ovarian; NCI-H460 lung; MALME-3M melanoma; HCT-116 colon; IGROV1 ovarian; RPMI-8226 leukemia; SNB-19 CNS; A549 NSCLC; SK-MEL-5 melanoma.
Common to all, as to experiment: NCI anticancer screen, dose series, 48 h

Structures are written as SMILES.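 Assay format: 96-well plates, 48-hour exposure. GI50 is the concentration that inhibits growth by half. TGI denotes the concentration required for complete inhibition of growth.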

As to `Cc1cc2c(C(=O)NC[C@H](C)c3ccccc3)c(O)c(O)cc2c(O)c1-c1c(C)cc2c(C(=O)NC[C@H](C)c3ccccc3)c(O)c(O)cc2c1O`, the GI50 in the assay on UACC-257 melanoma was 1.37 µM; with OVCAR-5 ovarian, 0.503 µM; with NCI-H460 lung it was 0.0334 µM; in the assay on MALME-3M melanoma, 1.78 µM; in the assay with HCT-116 colon, 0.0346 µM; in the assay with IGROV1 ovarian it was 0.0909 µM. Also, the GI50 is 0.185 µM with RPMI-8226 leukemia, 0.0605 µM in the assay on SNB-19 CNS, 0.0693 µM with A549 NSCLC and 0.447 µM in the assay on SK-MEL-5 melanoma. Moreover, the TGI was determined as 7.23 µM with UACC-257 melanoma; 5.03 µM in the assay with OVCAR-5 ovarian; 0.388 µM in the assay with NCI-H460 lung; 7.23 µM with MALME-3M melanoma; 9.59 µM in the assay on HCT-116 colon; 11.3 µM in the assay with IGROV1 ovarian. Further, the TGI with RPMI-8226 leukemia came out at 5.41 µM; with SNB-19 CNS it was 4.3 µM; in the assay on A549 NSCLC, 3.23 µM; in the assay on SK-MEL-5 melanoma, 1.47 µM.

Regarding `CCc1nc(N)nc(N)c1-c1ccc(Cl)c([N+](=O)[O-])c1`, the TGI in the assay on UACC-257 melanoma, in the assay with OVCAR-5 ovarian, in the assay with NCI-H460 lung, in the assay with MALME-3M melanoma, with HCT-116 colon and in the assay on IGROV1 ovarian was > 100 µM in each case. The TGI in the assay on RPMI-8226 leukemia was > 83.9 µM; with SNB-19 CNS it was > 100 µM; in the assay on A549 NSCLC, > 100 µM; with SK-MEL-5 melanoma, 48.8 µM.

Turning to `C=CN(C(=O)N1CCN(c2cc3c(cc2F)c(=O)c(C(=O)O)cn3C2CC2)CC1)c1nc(-c2ccc(OC)cc2)cs1`, the GI50 with UACC-257 melanoma is 2.97 µM; in the assay with OVCAR-5 ovarian, 5.13 µM; with NCI-H460 lung, 3.54 µM; in the assay on MALME-3M melanoma, 4.11 µM; in the assay on HCT-116 colon it was 3.42 µM; in the assay on IGROV1 ovarian, 3.89 µM. For the same compound, the GI50 is 2.75 µM in the assay with RPMI-8226 leukemia, 4.7 µM in the assay with SNB-19 CNS, 3.39 µM in the assay on A549 NSCLC and 2.11 µM with SK-MEL-5 melanoma. Besides, the TGI was 7.18 µM in the assay on UACC-257 melanoma; > 100 µM with OVCAR-5 ovarian; > 100 µM in the assay on NCI-H460 lung; > 100 µM in the assay with MALME-3M melanoma; > 100 µM in the assay with HCT-116 colon; > 100 µM with IGROV1 ovarian. For the same compound, the TGI in the assay on RPMI-8226 leukemia is > 100 µM; in the assay with SNB-19 CNS it was 46 µM; in the assay on A549 NSCLC it was > 100 µM; in the assay with SK-MEL-5 melanoma it was 4.78 µM.

In the case of `C/C=C(\C)c1cc(=O)c2c(C)cc3c(c2o1)C(=O)c1c(O)c(C2CC(C)(N(C)C)C(OC(C)=O)C(C)O2)cc(C2CC(N(C)C)C(O)C(C)O2)c1C3=O` (stereo not given), the TGI in the assay on UACC-257 melanoma came out at 6.47 µM; in the assay with OVCAR-5 ovarian, 15.5 µM; in the assay with NCI-H460 lung, 5.94 µM; in the assay with MALME-3M melanoma, 1.13 µM; with HCT-116 colon it was 6.33 µM; in the assay with IGROV1 ovarian it was 6.01 µM. Further, the TGI is > 50 µM with RPMI-8226 leukemia, 10.9 µM with SNB-19 CNS, > 50 µM with A549 NSCLC and 1.59 µM in the assay with SK-MEL-5 melanoma.

Turning to `COc1ccc2c(c1)C(=O)c1c-2n(CCCN(C)C)c(=O)c2ccccc12`, the GI50 in the assay with UACC-257 melanoma was 0.929 µM; in the assay with OVCAR-5 ovarian, 0.515 µM; in the assay on NCI-H460 lung it was 0.0517 µM; in the assay with MALME-3M melanoma, 0.483 µM; with HCT-116 colon, 0.213 µM; in the assay with IGROV1 ovarian, 0.344 µM. In addition, the GI50 was 0.165 µM in the assay on RPMI-8226 leukemia, 0.264 µM in the assay on SNB-19 CNS, 0.119 µM with A549 NSCLC and 0.123 µM with SK-MEL-5 melanoma. Besides, the TGI in the assay with UACC-257 melanoma is 6.22 µM; with OVCAR-5 ovarian it was 12.7 µM; in the assay with NCI-H460 lung, 0.454 µM; in the assay with MALME-3M melanoma it was 2.06 µM; in the assay on HCT-116 colon it was 1.42 µM; in the assay with IGROV1 ovarian, 12.3 µM. For the same compound, the TGI with RPMI-8226 leukemia is 0.532 µM; in the assay with SNB-19 CNS it was 3.4 µM; with A549 NSCLC, 0.559 µM; in the assay on SK-MEL-5 melanoma, 0.406 µM.

As to `COC(COC(N)=O)C1=C(N2CC2)C(=O)C(C)=C(N2CC2)C1=O` (stereo not given), the TGI in the assay on UACC-257 melanoma is 0.579 µM; with OVCAR-5 ovarian it was 0.71 µM; in the assay with NCI-H460 lung, 0.115 µM; in the assay with MALME-3M melanoma, 0.301 µM; in the assay on HCT-116 colon, 0.134 µM; with IGROV1 ovarian, 0.995 µM. Further, the TGI was 3.16 µM in the assay on RPMI-8226 leukemia, 1.75 µM with SNB-19 CNS, 2.21 µM with A549 NSCLC and 0.128 µM with SK-MEL-5 melanoma.

For `COc1ccc2ncn(-c3cc(O[C@H](C)c4ccccc4C(F)(F)F)c(C(N)=O)s3)c2c1`, the GI50 in the assay on UACC-257 melanoma is 2.55 µM; in the assay on OVCAR-5 ovarian it was 0.162 µM; in the assay with NCI-H460 lung, 0.088 µM; with MALME-3M melanoma, 4.5 µM; in the assay on HCT-116 colon, 0.125 µM; in the assay with IGROV1 ovarian it was 0.312 µM. Moreover, the GI50 in the assay with RPMI-8226 leukemia was 0.627 µM; in the assay with SNB-19 CNS, 1.88 µM; in the assay with A549 NSCLC, 0.119 µM; in the assay on SK-MEL-5 melanoma, 0.169 µM. Also, the TGI turned out to be 6.28 µM in the assay with UACC-257 melanoma; 14.9 µM in the assay with OVCAR-5 ovarian; 2.99 µM with NCI-H460 lung; 9.51 µM in the assay on MALME-3M melanoma; 3.53 µM in the assay on HCT-116 colon; 10.5 µM in the assay on IGROV1 ovarian. Moreover, the TGI with RPMI-8226 leukemia turned out to be 8.44 µM; in the assay on SNB-19 CNS it was 11.3 µM; in the assay on A549 NSCLC, 4.22 µM; in the assay on SK-MEL-5 melanoma it was 3.55 µM.

For the compound `Cc1ccc(C)c(N2C(=O)C(=O)C(c3nc4ccccc4s3)/C(=N/N)C2=O)c1` (stereo not given), the TGI in the assay with UACC-257 melanoma is > 74.5 µM; with OVCAR-5 ovarian, > 100 µM; in the assay with NCI-H460 lung, > 100 µM; in the assay on MALME-3M melanoma, > 100 µM; in the assay with HCT-116 colon it was > 100 µM; in the assay with IGROV1 ovarian, > 100 µM. In addition, the TGI in the assay with RPMI-8226 leukemia, with SNB-19 CNS, in the assay with A549 NSCLC and in the assay with SK-MEL-5 melanoma was > 100 µM throughout.

With `CCOC(=O)Cc1c(C)c2cc(C(=O)c3ccccc3)c(O)cc2oc1=O`, the TGI in the assay on UACC-257 melanoma is 80.1 µM; in the assay with OVCAR-5 ovarian it was > 100 µM; in the assay with NCI-H460 lung, > 100 µM; in the assay on MALME-3M melanoma, 62.1 µM; in the assay on HCT-116 colon, > 100 µM; in the assay with IGROV1 ovarian, > 100 µM. In addition, the TGI in the assay on RPMI-8226 leukemia is > 100 µM; in the assay on SNB-19 CNS, > 100 µM; with A549 NSCLC it was 91.3 µM; in the assay with SK-MEL-5 melanoma it was 40 µM.

Source of the values: PubChem BioAssay (NCI).
